# Assay results from patent US6737383B1, “Herbicidal oxadiazolidines” (priority 1999, dated 2004).
# Experiments:
# corn = assay: Test B pre/postemergence corn; assay type: in vivo, Zea mays
# Method in brief: (§1)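 Response is a visual 0-to-10 score relative to untreated plants, where 0 means no effect and 10 means complete control, taken twelve to sixteen days after application. Treatments went onto soil at planting and onto foliage of 1- to 4-leaf plants, using a surfactant-containing non-phytotoxic solvent.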
# sugar beet = assay: Test B pre/postemergence sugar beet; assay type: in vivo, Beta vulgaris; details: for Plant response rating, Sugarbeets: Postemergence
# Method in brief: as §1
# cocklebur = assay: Test B pre/postemergence cocklebur; assay type: in vivo, Xanthium strumarium
# Method in brief: as §1
# blackgrass = assay: Test B pre/postemergence blackgrass; assay type: in vivo, Alopecurus myosuroides
# Method in brief: as §1
# soybean = assay: Test B pre/postemergence soybean; assay type: in vivo, Glycine max; details: for Plant response rating, Soybean: Postemergence
# Method in brief: as §1
# morningglory = assay: Test B pre/postemergence morningglory; assay type: in vivo, Ipomoea hederacea
# Method in brief: as §1
# wheat = assay: Test B pre/postemergence wheat; assay type: in vivo, Triticum aestivum; details: for Plant response rating, Wheat: Postemergence
# Method in brief: as §1
# pigweed = assay: Test B pre/postemergence pigweed; assay type: in vivo, Amaranthus retroflexus; details: for Plant response rating, Redroot pigweed: Postemergence
# Method in brief: as §1
# rape = assay: Test B pre/postemergence rape; assay type: in vivo, Brassica napus
# Method in brief: as §1
# crabgrass = assay: Test B pre/postemergence crabgrass; assay type: in vivo, Digitaria sanguinalis
# Method in brief: as §1
# velvetleaf = assay: Test B pre/postemergence velvetleaf; assay type: in vivo, Abutilon theophrasti; details: for Plant response rating, Velvetleaf: Postemergence
# Method in brief: as §1
# bedstraw = assay: Test B pre/postemergence bedstraw; assay type: in vivo, Galium aparine
# Method in brief: as §1
# surinam grass = assay: Test B pre/postemergence surinam grass; assay type: in vivo, Brachiaria decumbens
# Method in brief: as §1
# giant foxtail = assay: Test B pre/postemergence giant foxtail; assay type: in vivo, Setaria faberii
# Method in brief: as §1
# purple nutsedge = assay: Test B pre/postemergence purple nutsedge; assay type: in vivo, Cyperus rotundus
# Method in brief: as §1
# wild oat = assay: Test B pre/postemergence wild oat; assay type: in vivo, Avena fatua; details: for Plant response rating, Wild oats: Postemergence
# Method in brief: as §1
# [1] = Postemergence, Rate 62 g/ha, scale of 0 to 10, 0 is no effect, 10 is complete control
# [2] = Postemergence, Rate 125 g/ha, scale 0 to 10, 0 is no effect, 10 is complete control
# [3] = Postemergence, Rate 500 g/ha, scale of 0 to 10 where 0 is no effect and 10 is complete control
# [4] = Preemergence, Rate 62 g/ha, scale 0 to 10 (0 no effect, 10 complete control)
# [5] = Preemergence, Rate 125 g/ha, scale 0 to 10, 0 is no effect, 10 is complete control
# [6] = Preemergence, Rate 500 g/ha, scale of 0 to 10 where 0 is no effect and 10 is complete control
# [7] = Rate 250 g/ha, Postemergence, scale of 0 to 10 where 0 is no effect and 10 is complete control
# [8] = Rate 500 g/ha, scale of 0 to 10 where 0 is no effect and 10 is complete control
# [9] = Rate 250 g/ha, scale of 0 to 10 where 0 is no effect and 10 is complete control
structure (smiles),measurement,setting,value
CCOC(=O)C=C(Cn1c(=O)on(C(=O)N(c2ccccc2)C(C)C)c1=O)OCC [Compound 578],Corn plant response rating,corn; [1],0
same,Corn plant response rating,corn; [2],0
same,"Plant response rating, Corn",corn; [3],0
same,Corn plant response rating,corn; [4],3
same,Corn plant response rating,corn; [5],2
same,Corn plant response rating (0 to 10 scale),"corn; Preemergence, Rate 250 g/ha",2
same,Corn plant response rating,corn; [6],4
same,"Plant response rating, Corn",corn; [7],0
same,"Plant response rating, Sugarbeets",sugar beet; [8],4
same,Sugarbeets plant response rating,sugar beet; [4],0
same,Sugarbeets plant response rating,sugar beet; [5],2
same,Sugarbeets plant response rating (0 to 10 scale),"sugar beet; Preemergence, Rate 250 g/ha",3
same,Sugarbeets plant response rating,sugar beet; [6],3
same,"Plant response rating, Sugarbeets",sugar beet; [9],0
same,Cocklebur plant response rating,cocklebur; [1],0
same,Cocklebur plant response rating,cocklebur; [2],0
same,"Plant response rating, Cocklebur",cocklebur; [3],0
same,Cocklebur plant response rating,cocklebur; [4],0
same,Cocklebur plant response rating,cocklebur; [5],0
same,Cocklebur plant response rating (0 to 10 scale),"cocklebur; Preemergence, Rate 250 g/ha",0
same,Cocklebur plant response rating,cocklebur; [6],3
same,"Plant response rating, Cocklebur",cocklebur; [7],0
same,Blackgrass plant response rating,blackgrass; [1],0
same,Blackgrass plant response rating,blackgrass; [2],0
same,"Plant response rating, Blackgrass",blackgrass; [3],2
same,Blackgrass plant response rating,blackgrass; [4],0
same,Blackgrass plant response rating,blackgrass; [5],0
same,Blackgrass plant response rating (0 to 10 scale),"blackgrass; Preemergence, Rate 250 g/ha",0
same,Blackgrass plant response rating,blackgrass; [6],4
same,"Plant response rating, Blackgrass",blackgrass; [7],0
same,"Plant response rating, Soybean",soybean; [8],4
same,Soybean plant response rating,soybean; [4],0
same,Soybean plant response rating,soybean; [5],0
same,Soybean plant response rating (0 to 10 scale),"soybean; Preemergence, Rate 250 g/ha",0
same,Soybean plant response rating,soybean; [6],0
same,"Plant response rating, Soybean",soybean; [9],3
same,Morningglory plant response rating,morningglory; [1],9
same,Morningglory plant response rating,morningglory; [2],10
same,"Plant response rating, Morningglory",morningglory; [3],10
same,Morningglory plant response rating,morningglory; [4],0
same,Morningglory plant response rating,morningglory; [5],0
same,Morningglory plant response rating (0 to 10 scale),"morningglory; Preemergence, Rate 250 g/ha",0
same,Morningglory plant response rating,morningglory; [6],0
same,"Plant response rating, Morningglory",morningglory; [7],10
same,"Plant response rating, Wheat",wheat; [8],0
same,Wheat plant response rating,wheat; [4],0
same,Wheat plant response rating,wheat; [5],0
same,Wheat plant response rating (0 to 10 scale),"wheat; Preemergence, Rate 250 g/ha",0
same,Wheat plant response rating,wheat; [6],2
same,"Plant response rating, Wheat",wheat; [9],0
same,"Plant response rating, Redroot pigweed",pigweed; [8],3
same,Redroot pigweed plant response rating,pigweed; [4],2
same,Redroot pigweed plant response rating,pigweed; [5],4
same,Redroot pigweed plant response rating (0 to 10 scale),"pigweed; Preemergence, Rate 250 g/ha",9
same,Redroot pigweed plant response rating,pigweed; [6],10
same,"Plant response rating, Redroot pigweed",pigweed; [9],3
same,Rape plant response rating,rape; [1],2
same,Rape plant response rating,rape; [2],2
same,"Plant response rating, Rape",rape; [3],4
same,Rape plant response rating,rape; [4],0
same,Rape plant response rating,rape; [5],0
same,Rape plant response rating (0 to 10 scale),"rape; Preemergence, Rate 250 g/ha",2
same,Rape plant response rating,rape; [6],4
same,"Plant response rating, Rape",rape; [7],4
same,Crabgrass plant response rating,crabgrass; [1],0
same,Crabgrass plant response rating,crabgrass; [2],2
same,"Plant response rating, Crabgrass",crabgrass; [3],9
same,Crabgrass plant response rating,crabgrass; [4],0
same,Crabgrass plant response rating,crabgrass; [5],9
same,Crabgrass plant response rating (0 to 10 scale),"crabgrass; Preemergence, Rate 250 g/ha",9
same,Crabgrass plant response rating,crabgrass; [6],10
same,"Plant response rating, Crabgrass",crabgrass; [7],4
same,"Plant response rating, Velvetleaf",velvetleaf; [8],3
same,Velvetleaf plant response rating,velvetleaf; [4],0
same,Velvetleaf plant response rating,velvetleaf; [5],2
same,Velvetleaf plant response rating (0 to 10 scale),"velvetleaf; Preemergence, Rate 250 g/ha",2
same,Velvetleaf plant response rating,velvetleaf; [6],2
same,"Plant response rating, Velvetleaf",velvetleaf; [9],4
same,Bedstraw plant response rating,bedstraw; [2],8
same,Bedstraw plant response rating,bedstraw; [4],0
same,Bedstraw plant response rating,bedstraw; [5],0
same,Bedstraw plant response rating (0 to 10 scale),"bedstraw; Preemergence, Rate 250 g/ha",0
same,Bedstraw plant response rating,bedstraw; [6],0
same,B. signalgrass plant response rating,surinam grass; [1],0
same,B. signalgrass plant response rating,surinam grass; [2],0
same,"Plant response rating, B. signalgrass",surinam grass; [3],0
same,B. signalgrass plant response rating,surinam grass; [4],0
same,B. signalgrass plant response rating,surinam grass; [5],3
same,"B. signalgrass plant response rating (0 to 10 scale, 0 is no effect, 10 is complete control)","surinam grass; Preemergence, Rate 250 g/ha",9
same,B. signalgrass plant response rating,surinam grass; [6],9
same,"Plant response rating, B. signalgrass",surinam grass; [7],0
same,Giant foxtail plant response rating,giant foxtail; [1],0
same,Giant foxtail plant response rating,giant foxtail; [2],4
same,"Plant response rating, Giant foxtail",giant foxtail; [3],8
same,Giant foxtail plant response rating,giant foxtail; [4],2
same,Giant foxtail plant response rating,giant foxtail; [5],9
same,Giant foxtail plant response rating (0 to 10 scale),"giant foxtail; Preemergence, Rate 250 g/ha",10
same,Giant foxtail plant response rating,giant foxtail; [6],10
same,"Plant response rating, Giant foxtail",giant foxtail; [7],7
same,"Plant response rating, Nutsedge",purple nutsedge; [3],0
same,Nutsedge plant response rating,purple nutsedge; [4],0
same,Nutsedge plant response rating,purple nutsedge; [5],0
same,Nutsedge plant response rating (0 to 10 scale),"purple nutsedge; Preemergence, Rate 250 g/ha",0
same,Nutsedge plant response rating,purple nutsedge; [6],0
same,"Plant response rating, Wild oats",wild oat; [8],0
same,Wild oats plant response rating,wild oat; [4],0
same,Wild oats plant response rating,wild oat; [5],0
same,Wild oats plant response rating (0 to 10 scale),"wild oat; Preemergence, Rate 250 g/ha",2
same,Wild oats plant response rating,wild oat; [6],2
same,"Plant response rating, Wild oats",wild oat; [9],0
